Data set [1] in a line: n-Octanol/PBS distribution coefficient (log D). It counts as physicochemical. Particulars: n-octanol/PBS; radiolabeled ligand, 50 MBq/nmol, PBS pH 7.4. How it is done:
The radioligand (0.5 MBq; 10 pmol, 25 μL) was then added to a reagent tube containing 1475 μL of PBS pH 7.4 and 1500 μL of n-octanol. The vials were vortexed vigorously followed by a centrifugation step for phase separation.
Determination of n-Octanol/PBS Distribution Coefficients (Log D Values). The distribution coefficients (log D values) of the ^64Cu-labeled radioligands (50 MBq/nmol) were determined by a shake-flask method using liquid-liquid extraction followed by phase separation as previously reported. Three experiments were performed with five replicates for each radioligand. Statistical significance of the data (p<0.05) was evaluated using an unpaired t-test (GraphPad Prism software, version 7).
Determination of n-Octanol/PBS Distribution Coefficients (Log D Values). […] A sample of the radioligands was mixed with phosphate-buffered saline (PBS) and n-octanol followed by vigorous vortexing. […] Three experiments were performed with five replicates for each compound.

In data set [2] the test system is PC-3 PIP/flu tumor-bearing mice. In words: Biodistribution studies in PC-3 PIP/flu tumor-bearing mice. Particulars: for Tumor-to-blood / Tumor-to-kidney / Tumor-to-liver: PC-3 PIP tumor.
The next data set deals with PC-3 PIP tumor. Description: Therapy study in PC-3 PIP tumor-bearing mice. It is filed as in vivo. An excerpt:
Mice of Groups B and D received 2 MBq of the radioligand (1 nmol/mouse), whereas mice of Groups C and E received 5 MBq of the radioligand (1 nmol/mouse). The mice were monitored by measuring body weights and the tumor size every other day over 12 weeks. Mice were euthanized when pre-defined endpoint criteria were reached, or when the study was terminated at Day 84. The relative body weight (RBW) was defined as [BWx/BW0], where BWx is the body weight in gram at a given day x and BW0 the body weight in gram at day 0. The tumor dimension was determined by measuring the longest tumor axis (L) and its perpendicular axis (W) with a digital caliper. The tumor volume (V) was calculated according to the equation [V=0.5*(L*W2)]. The relative tumor volume (RTV) was defined as [TVx/TV0], where TVx is the tumor volume in mm3 at a given day x and TV0 the tumor volume in mm3 at Day 0.
The efficacy of the radionuclide therapy was expressed as the tumor growth delay (TGDx), which was calculated as the time required for the tumor volume to increase x-fold over the initial volume at the Day 0. The tumor growth delay index [TGDIx=TGDx(T)/TGDx(C)] was calculated as the TGDx ratio of treated mice (T) over control mice (C) for a 2-fold (x=2, TGD2) and 5-fold (x=5, TGD5) increase of the initial tumor volume. As a measure to identify undesired side effects, body weights were compared at the day when the first control mouse had to be euthanized. After euthanasia, kidneys, liver and the brain were collected and weighed. The organ ratios (kidney-to-brain and liver-to-brain) were calculated using the organ masses obtained at the day of euthanasia.
The data was analyzed for significance as indicated in the result part using a one-way ANOVA with Tukey's multiple comparison post-test using GraphPad Prism software (version 7). A value of p<0.05 was considered statistically significant. Survival analysis was performed with Kaplan-Meier curves and a log-rank tests (Mantel Cox).

Data set [3] has as its system PSMA-positive PC-3 PIP cells. In words: Cell uptake and internalization in PSMA-positive PC-3 PIP cells. It counts as cell-based. Particulars: 2 h and 4 h time-point, PC-3 PIP cells.
The mark [4] stands for this setting: 2 MBq/mouse (Groups B, D), control = 1.

As usually defined, the logD is the decadic logarithm of the distribution of all forms, ionised or not, between an organic phase and buffer at a given pH.

In the case of `O=C(O)CC[C@H](NC(=O)N[C@@H](CCCCNC(=O)[C@H](Cc1ccc2ccccc2c1)NC(=O)[C@H]1CC[C@H](CNC(=O)[C@@H](CCCCNC(=O)CN2CCN(CC(=O)O)CCN(CC(=O)O)CCN(CC(=O)O)CC2)NC(=O)CCCc2ccc(I)cc2)CC1)C(=O)O)C(=O)O` [PSMA-ALB-02], the logD in data set [1] is -2.8 ± 0.09.

For `Cc1ccc(CCCC(=O)NCCCCC(NC(=O)CN2CCN(CC(=O)O)CCN(CC(=O)O)CCN(CC(=O)O)CC2)C(=O)NCC2CCC(C(=O)NC(Cc3ccc4ccccc4c3)C(=O)NCCCCC(NC(=O)NC(CCC(=O)O)C(=O)O)C(=O)O)CC2)cc1` (centres unmarked) [^177Lu-PSMA-ALB-06, metal not drawn], in data set [2] (4 h p.i.), the Blood amounted to 16.2 ± 1.40 % IA/g, the Bone came out at 2.23 ± 0.08 % IA/g, the Intestines came to 2.64 ± 0.27 % IA/g and the Lung came to 9.40 ± 1.55 % IA/g. In addition, in data set [2] (4 h p.i.), the Muscle was 1.60 ± 0.38 % IA/g, the “PC-3 PIP Tumor” value was 76.08 ± 7.67 % IA/g, the Tumor-to-blood was determined as 4.72 ± 0.51 and the Tumor-to-kidney turned out to be 4.02 ± 0.25. In data set [2] (4 h p.i.), the Tumor-to-liver came out at 24.29 ± 8.27. Further, in data set [2] (24 h p.i.), the Blood is given as 1.49 ± 0.50 % IA/g, the Bone is 0.41 ± 0.15 % IA/g, the Heart is given as 0.68 ± 0.18 % IA/g and the Intestines came to 0.30 ± 0.06 % IA/g. In data set [2] (24 h p.i.), the Lung is 2.48 ± 2.68 % IA/g, the Muscle is listed as 0.21 ± 0.04 % IA/g, the “PC-3 PIP Tumor” value was found to be 108 ± 11.6 % IA/g and the “PC-3 flu Tumor” value was found to be 0.79 ± 0.23 % IA/g. In data set [2] (24 h p.i.), this molecule showed a Spleen of 0.76 ± 0.18 % IA/g, a Stomach of 0.28 ± 0.07 % IA/g, a Tumor-to-blood of 77.6 ± 21.8 and a Tumor-to-kidney of 10.4 ± 1.16. In data set [2] (24 h p.i.), the Tumor-to-liver is reported as 222 ± 49.5. Further, in data set [2] (72 h p.i.), the Blood is listed as 0.62 ± 0.06 % IA/g, the Bone stood at 0.18 ± 0.01 % IA/g, the Heart came out at 0.26 ± 0.02 % IA/g and the Intestines is recorded as 0.15 ± 0.00 % IA/g. In data set [2] (72 h p.i.), the Kidneys worked out at 5.58 ± 0.62 % IA/g, the Liver is given as 0.28 ± 0.02 % IA/g, the Lung was found to be 0.67 ± 0.05 % IA/g and the “PC-3 PIP Tumor” value was 77.9 ± 7.52 % IA/g. In addition, in data set [2] (72 h p.i.), the “PC-3 flu Tumor” value is listed as 0.43 ± 0.03 % IA/g, the Salivary glands is 0.24 ± 0.03 % IA/g, the Stomach is listed as 0.13 ± 0.02 % IA/g and the Tumor-to-blood is 127 ± 24.9. Further, in data set [2] (72 h p.i.), the Tumor-to-kidney is reported as 14.1 ± 2.02 and the Tumor-to-liver stood at 277 ± 19.3. For the same molecule, in the data set on PC-3 PIP tumor (2 MBq/mouse (Groups B, D)), the “first mouse of group euthanized” value was determined as 28 days and the median survival was determined as 36 days. Moreover, in the data set with PC-3 PIP tumor (setting [4]), the TGDI2 is recorded as 1.8 ± 0.5 and the TGDI5 came out at 2.3 ± 0.6. The tumor growth entry in the data set on PC-3 PIP tumor (5 MBq/mouse (Group E)) is listed as “the tumor growth was effectively inhibited”. In addition, in the data set with PC-3 PIP tumor (5 MBq/mouse (Group E), n=6), the “mice in which tumors disappeared entirely, no regrowth until Day 84” value is recorded as “four” and the “mice still alive at the end of the study at Day 84” value is listed as “four”. For the same molecule, the “first mouse of group euthanized” value with PC-3 PIP tumor (5 MBq/mouse (Groups C, E)) amounted to 58 days. For the same molecule, the “internalized fraction / internalization rate versus reference” value in data set [3] was “still comparable to ^177Lu-PSMA-617”.

In data set [1], `Cc1ccc(CCCC(=O)NCCCCC(NC(=O)CN2CCN(CC(=O)O)CCN(CC(=O)O)CCN(CC(=O)O)CC2)C(=O)NCC2CCC(C(=O)NC(Cc3ccc4ccccc4c3)C(=O)NCCCCC(NC(=O)NC(CCC(=O)O)C(=O)O)C(=O)O)CC2)cc1` (centres unmarked) [^64Cu-PSMA-ALB-06, metal not drawn] gave a logD of -3.1 ± 0.1.

The molecule `O=C(O)CC[C@H](NC(=O)N[C@@H](CCCCNC(=O)[C@H](Cc1ccc2ccccc2c1)NC(=O)[C@H]1CC[C@H](CNC(=O)CN2CCN(CC(=O)O)CCN(CC(=O)O)CCN(CC(=O)O)CC2)CC1)C(=O)O)C(=O)O` [PSMA-617, reference compound] displayed a logD in data set [1] of -4.4 ± 0.15.

On to `O=C(O)CCC(NC(=O)NC(CCCCNC(=O)C(Cc1ccc2ccccc2c1)NC(=O)C1CCC(CNC(=O)C(CCCCNC(=O)CN2CCN(CC(=O)O)CCN(CC(=O)O)CCN(CC(=O)O)CC2)NC(=O)CC(NC(=O)CC(NC(=O)CC(NC(=O)CCCc2ccc(I)cc2)C(=O)O)C(=O)O)C(=O)O)CC1)C(=O)O)C(=O)O` (centres unmarked) [PSMA-ALB-07], for which, in data set [1], the logD is -3.9 ± 0.25.

Turning to `O=C(O)CCC(NC(=O)NC(CCCCNC(=O)C(Cc1ccc2ccccc2c1)NC(=O)C1CCC(CNC(=O)C(CCCCNC(=O)CN2CCN(CC(=O)O)CCN(CC(=O)O)CCN(CC(=O)O)CC2)NC(=O)CC(NC(=O)CC(NC(=O)CCCc2ccc(I)cc2)C(=O)O)C(=O)O)CC1)C(=O)O)C(=O)O` (centres unmarked) [PSMA-ALB-05], in data set [1], the logD is -3.5 ± 0.08.
